Holding throughout (experiment): biochemical
Holding throughout (set-up): species or system mixed lysate of K562, MV4-11, THP-1, NCI-H1155

In assay [1] the target is Cyclin-dependent kinase 7 ; CDK7 ; P50613 (Homo sapiens, UniProt P50613).
Assay [2] has as its target T1, Cyclin-dependent kinase-like 5 ; CDKL5 ; O76039 (Homo sapiens, UniProt O76039).
T1 sequence (O76039 1-960): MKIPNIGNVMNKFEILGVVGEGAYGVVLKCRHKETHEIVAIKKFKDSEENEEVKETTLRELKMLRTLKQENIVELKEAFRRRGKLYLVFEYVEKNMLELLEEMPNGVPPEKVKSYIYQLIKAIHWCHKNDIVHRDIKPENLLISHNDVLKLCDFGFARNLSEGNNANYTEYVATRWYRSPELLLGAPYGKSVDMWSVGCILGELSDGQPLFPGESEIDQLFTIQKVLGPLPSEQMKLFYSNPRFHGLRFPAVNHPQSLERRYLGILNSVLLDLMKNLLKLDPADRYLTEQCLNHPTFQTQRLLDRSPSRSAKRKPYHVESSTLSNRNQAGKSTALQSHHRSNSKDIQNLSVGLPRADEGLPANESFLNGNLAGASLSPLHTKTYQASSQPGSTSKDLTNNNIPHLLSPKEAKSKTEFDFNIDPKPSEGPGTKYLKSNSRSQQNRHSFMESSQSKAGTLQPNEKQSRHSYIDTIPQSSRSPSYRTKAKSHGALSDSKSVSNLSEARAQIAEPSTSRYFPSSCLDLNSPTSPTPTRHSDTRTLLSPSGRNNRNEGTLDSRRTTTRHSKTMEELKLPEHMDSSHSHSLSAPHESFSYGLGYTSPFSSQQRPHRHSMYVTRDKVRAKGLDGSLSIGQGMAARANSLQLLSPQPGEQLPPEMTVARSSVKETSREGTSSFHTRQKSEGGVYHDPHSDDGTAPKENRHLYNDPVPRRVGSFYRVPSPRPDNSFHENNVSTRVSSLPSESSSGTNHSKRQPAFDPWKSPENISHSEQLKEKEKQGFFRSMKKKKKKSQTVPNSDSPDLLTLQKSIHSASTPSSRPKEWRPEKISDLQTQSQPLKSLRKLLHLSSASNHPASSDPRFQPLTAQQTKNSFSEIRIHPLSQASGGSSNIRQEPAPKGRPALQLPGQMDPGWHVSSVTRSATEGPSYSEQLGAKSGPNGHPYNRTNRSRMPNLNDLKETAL

Assay [3] has as its target Mast/stem cell growth factor receptor Kit ; KIT ; P10721 (Homo sapiens, UniProt P10721).
For assay [4], the target named is High affinity nerve growth factor receptor ; NTRK1 ; P04629 (Homo sapiens, UniProt P04629).
Assay [5] concerns the target Calcium/calmodulin-dependent protein kinase kinase 2 ; CAMKK2 ; Q96RR4 (Homo sapiens, UniProt Q96RR4).
Assay [6] deals with Cyclin-dependent kinase 2 ; CDK2 ; P24941 (Homo sapiens, UniProt P24941).
Assay [7] concerns the target T2, Discoidin domain-containing receptor 2 ; DDR2 ; Q16832 (Homo sapiens, UniProt Q16832).
T2 sequence (Q16832 1-855): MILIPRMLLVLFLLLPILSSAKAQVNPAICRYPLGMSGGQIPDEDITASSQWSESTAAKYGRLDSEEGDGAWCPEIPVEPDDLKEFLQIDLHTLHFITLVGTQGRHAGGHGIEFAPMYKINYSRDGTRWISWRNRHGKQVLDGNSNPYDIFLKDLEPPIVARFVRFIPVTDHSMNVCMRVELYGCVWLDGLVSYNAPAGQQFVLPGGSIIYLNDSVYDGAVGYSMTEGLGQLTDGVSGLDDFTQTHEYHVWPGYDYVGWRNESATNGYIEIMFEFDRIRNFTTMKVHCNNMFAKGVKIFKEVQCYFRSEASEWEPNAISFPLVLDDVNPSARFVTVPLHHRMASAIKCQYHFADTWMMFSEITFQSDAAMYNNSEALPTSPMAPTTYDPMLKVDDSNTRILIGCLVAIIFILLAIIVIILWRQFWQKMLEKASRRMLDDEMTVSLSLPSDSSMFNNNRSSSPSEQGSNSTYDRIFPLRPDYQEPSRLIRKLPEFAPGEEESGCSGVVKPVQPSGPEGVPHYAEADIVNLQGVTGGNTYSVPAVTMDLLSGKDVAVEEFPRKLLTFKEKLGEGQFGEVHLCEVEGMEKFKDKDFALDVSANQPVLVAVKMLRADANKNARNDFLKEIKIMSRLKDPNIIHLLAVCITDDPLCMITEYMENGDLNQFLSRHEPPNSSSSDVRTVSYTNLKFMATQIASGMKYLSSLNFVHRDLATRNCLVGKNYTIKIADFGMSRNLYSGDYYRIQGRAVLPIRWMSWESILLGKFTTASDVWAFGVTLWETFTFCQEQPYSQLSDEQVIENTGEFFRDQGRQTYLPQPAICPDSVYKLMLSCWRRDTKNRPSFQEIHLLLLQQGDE

The target in assay [8] is Isoform 2 of Cyclin-dependent kinase 17 ; CDK17 ; Q00537-2 (Homo sapiens, UniProt Q00537).
The target of assay [9] is Cyclin-dependent kinase 10 ; CDK10 ; Q15131 (Homo sapiens, UniProt Q15131).
Setting [10] is: read-out: BAY-1251152 (10 µM) / %Intensity relative to DMSO.
[11] abbreviates: read-out: BAY-1143572 (10 µM) / %Intensity relative to DMSO.

Read-outs that look alike come from different tables or passages of the source.

Cyclin-dependent kinase 7 ; CDK7 ; P50613, sequence (P50613 whole entry, one chain of several): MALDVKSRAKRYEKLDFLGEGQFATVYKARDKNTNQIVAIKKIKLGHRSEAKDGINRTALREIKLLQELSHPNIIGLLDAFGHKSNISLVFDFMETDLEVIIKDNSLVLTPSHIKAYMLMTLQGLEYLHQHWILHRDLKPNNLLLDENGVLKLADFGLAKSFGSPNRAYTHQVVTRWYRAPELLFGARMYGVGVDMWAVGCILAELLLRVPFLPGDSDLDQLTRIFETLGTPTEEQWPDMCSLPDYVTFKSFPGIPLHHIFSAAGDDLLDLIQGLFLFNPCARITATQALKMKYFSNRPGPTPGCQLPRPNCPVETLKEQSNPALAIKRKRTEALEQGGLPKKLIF
High affinity nerve growth factor receptor ; NTRK1 ; P04629, sequence (P04629 whole entry): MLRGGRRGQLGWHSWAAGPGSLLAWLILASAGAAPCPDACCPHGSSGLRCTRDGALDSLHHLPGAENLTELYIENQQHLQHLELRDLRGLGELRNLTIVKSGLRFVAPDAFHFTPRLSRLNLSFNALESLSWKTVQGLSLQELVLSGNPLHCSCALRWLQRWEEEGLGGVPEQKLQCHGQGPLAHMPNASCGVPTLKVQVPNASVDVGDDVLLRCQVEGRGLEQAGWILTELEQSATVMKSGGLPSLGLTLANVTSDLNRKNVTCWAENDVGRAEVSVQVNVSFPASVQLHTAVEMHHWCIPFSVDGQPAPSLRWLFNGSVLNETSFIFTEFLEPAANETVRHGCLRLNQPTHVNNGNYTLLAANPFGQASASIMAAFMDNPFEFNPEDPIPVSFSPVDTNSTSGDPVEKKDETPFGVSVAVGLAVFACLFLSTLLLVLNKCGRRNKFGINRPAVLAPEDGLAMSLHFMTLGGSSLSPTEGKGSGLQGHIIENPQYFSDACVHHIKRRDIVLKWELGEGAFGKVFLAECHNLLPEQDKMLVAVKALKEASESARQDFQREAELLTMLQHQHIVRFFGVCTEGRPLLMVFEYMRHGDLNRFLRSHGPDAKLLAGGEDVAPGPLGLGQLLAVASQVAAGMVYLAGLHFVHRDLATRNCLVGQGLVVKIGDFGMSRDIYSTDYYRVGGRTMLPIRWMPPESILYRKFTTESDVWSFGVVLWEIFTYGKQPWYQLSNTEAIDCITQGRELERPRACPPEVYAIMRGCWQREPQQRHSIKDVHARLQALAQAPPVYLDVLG
Isoform 2 of Cyclin-dependent kinase 17 ; CDK17 ; Q00537-2, sequence (Q00537 whole entry, canonical isoform, one chain of several): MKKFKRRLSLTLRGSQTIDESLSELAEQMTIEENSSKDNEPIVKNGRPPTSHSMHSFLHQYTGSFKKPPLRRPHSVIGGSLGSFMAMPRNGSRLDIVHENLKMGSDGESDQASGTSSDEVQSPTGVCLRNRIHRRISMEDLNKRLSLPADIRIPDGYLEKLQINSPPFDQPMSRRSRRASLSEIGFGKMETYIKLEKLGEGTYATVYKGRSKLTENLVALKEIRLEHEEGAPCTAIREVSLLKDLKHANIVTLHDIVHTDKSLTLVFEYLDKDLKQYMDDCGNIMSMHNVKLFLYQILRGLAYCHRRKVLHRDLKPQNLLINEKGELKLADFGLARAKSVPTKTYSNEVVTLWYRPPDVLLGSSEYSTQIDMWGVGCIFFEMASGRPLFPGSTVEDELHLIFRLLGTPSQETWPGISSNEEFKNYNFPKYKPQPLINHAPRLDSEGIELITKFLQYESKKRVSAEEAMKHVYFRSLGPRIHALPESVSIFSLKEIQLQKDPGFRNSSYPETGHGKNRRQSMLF
Calcium/calmodulin-dependent protein kinase kinase 2 ; CAMKK2 ; Q96RR4, sequence (Q96RR4 whole entry, one chain of several): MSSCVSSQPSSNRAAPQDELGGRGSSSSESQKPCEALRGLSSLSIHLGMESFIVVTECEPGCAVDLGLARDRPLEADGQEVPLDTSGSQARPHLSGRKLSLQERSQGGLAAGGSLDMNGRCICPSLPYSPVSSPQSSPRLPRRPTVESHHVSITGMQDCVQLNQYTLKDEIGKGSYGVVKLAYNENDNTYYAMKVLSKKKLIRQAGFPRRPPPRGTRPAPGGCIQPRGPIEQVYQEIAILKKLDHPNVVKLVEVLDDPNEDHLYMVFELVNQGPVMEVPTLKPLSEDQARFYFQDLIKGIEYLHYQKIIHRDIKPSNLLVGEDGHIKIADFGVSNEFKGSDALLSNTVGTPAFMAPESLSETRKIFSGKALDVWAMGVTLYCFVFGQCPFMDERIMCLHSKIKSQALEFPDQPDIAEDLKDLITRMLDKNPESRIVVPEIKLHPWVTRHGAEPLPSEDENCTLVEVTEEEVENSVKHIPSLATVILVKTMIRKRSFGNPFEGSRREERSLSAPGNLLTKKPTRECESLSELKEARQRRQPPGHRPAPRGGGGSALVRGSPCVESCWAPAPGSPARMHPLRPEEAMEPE
Mast/stem cell growth factor receptor Kit ; KIT ; P10721, sequence (P10721 whole entry, one chain of several): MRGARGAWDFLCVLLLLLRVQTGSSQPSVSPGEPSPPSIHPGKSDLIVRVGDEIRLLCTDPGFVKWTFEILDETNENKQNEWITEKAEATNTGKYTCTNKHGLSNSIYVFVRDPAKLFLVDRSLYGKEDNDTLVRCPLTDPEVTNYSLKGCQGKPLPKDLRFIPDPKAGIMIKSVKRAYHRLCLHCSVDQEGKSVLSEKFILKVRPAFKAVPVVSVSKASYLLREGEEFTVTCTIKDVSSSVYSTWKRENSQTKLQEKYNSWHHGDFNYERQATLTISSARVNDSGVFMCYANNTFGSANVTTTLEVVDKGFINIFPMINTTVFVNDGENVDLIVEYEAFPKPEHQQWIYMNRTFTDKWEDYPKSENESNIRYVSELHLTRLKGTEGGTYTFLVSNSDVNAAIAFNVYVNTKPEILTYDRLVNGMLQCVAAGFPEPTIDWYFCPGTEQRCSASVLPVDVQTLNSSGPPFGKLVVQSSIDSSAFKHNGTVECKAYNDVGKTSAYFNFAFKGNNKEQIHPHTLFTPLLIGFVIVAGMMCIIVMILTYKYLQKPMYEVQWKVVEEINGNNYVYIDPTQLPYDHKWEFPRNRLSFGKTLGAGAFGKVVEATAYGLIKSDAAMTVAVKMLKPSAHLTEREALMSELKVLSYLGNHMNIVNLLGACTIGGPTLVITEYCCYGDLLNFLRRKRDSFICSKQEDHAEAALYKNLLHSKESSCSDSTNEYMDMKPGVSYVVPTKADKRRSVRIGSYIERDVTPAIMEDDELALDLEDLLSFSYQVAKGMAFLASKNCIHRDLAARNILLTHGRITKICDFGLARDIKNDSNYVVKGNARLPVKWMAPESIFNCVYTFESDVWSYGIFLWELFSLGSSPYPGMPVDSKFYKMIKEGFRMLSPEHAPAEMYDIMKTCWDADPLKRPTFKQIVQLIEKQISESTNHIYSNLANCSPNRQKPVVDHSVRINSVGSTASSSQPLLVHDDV
Cyclin-dependent kinase 10 ; CDK10 ; Q15131, sequence (Q15131 whole entry, one chain of several): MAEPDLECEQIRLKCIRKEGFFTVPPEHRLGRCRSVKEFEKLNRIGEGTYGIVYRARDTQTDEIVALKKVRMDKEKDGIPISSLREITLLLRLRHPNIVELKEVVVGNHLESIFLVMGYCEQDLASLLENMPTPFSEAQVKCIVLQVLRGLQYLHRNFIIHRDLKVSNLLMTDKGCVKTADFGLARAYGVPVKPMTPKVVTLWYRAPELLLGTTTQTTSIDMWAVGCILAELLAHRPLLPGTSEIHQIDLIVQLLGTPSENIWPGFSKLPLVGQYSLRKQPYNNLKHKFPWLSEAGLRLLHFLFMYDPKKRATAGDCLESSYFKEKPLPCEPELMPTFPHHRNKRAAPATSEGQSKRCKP

Take `COc1cc(F)ccc1-c1cc(Nc2cc(CS(C)(=N)=O)ccn2)ncc1F` (stereo not drawn) [BAY-1251152]: the remaining activity at 10 µM amounted to 110% in assay [1] (setting [10]); 78.6% in assay [2] (setting [10]); 102% in assay [3] (setting [10]); 26.5% in assay [4] (setting [10]); 29.2% in assay [5] (setting [10]); 34.1% in assay [6] (setting [10]). The values for the remaining activity at 10 µM in assay [7] (setting [10]), in [8] (setting [10]) and in assay [9] (setting [10]) were 38.5%, 49.4% and 16.9%, respectively.

In the case of `COc1cc(F)ccc1-c1ncnc(Nc2cccc(C[S@](C)(=N)=O)c2)n1` [BAY-1143572], the remaining activity at 10 µM in assay [1] (setting [11]) amounted to 117%; in [2] (setting [11]) it was 27.1%; in assay [3] (setting [11]) it was 24.3%; in [4] (setting [11]) it was 106%; in [5] (setting [11]), 50.1%; in [6] (setting [11]), 31.4%. Besides, the results for the remaining activity at 10 µM in [7] (setting [11]), in assay [8] (setting [11]) and in [9] (setting [11]) were 72.3%, 66.1% and 29.6%, respectively.

The values are drawn from article doi:10.1101/2024.08.13.607785v1 (biorxiv, 2024).
